Experimental data published in PubChem BioAssay (NCI).
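Step 1: Grow cells in 96-well plates. Step 2: Expose to compound for 48 hours at 5 concentrations. Step 3: Interpolate endpoints linearly; if unreached, use highest concentration. GI50 = concentration required for 50% inhibition of growth. TGI is the concentration that stops growth completely.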

Columns and labels:
Test in all cases: inhibition of tumour cell growth, NCI panel, 48 h
NCI-H23 lung = test system: NCI-H23 lung
SK-MEL-28 melanoma = test system: SK-MEL-28 melanoma
OVCAR-5 ovarian = test system: OVCAR-5 ovarian
SK-OV-3 ovarian = test system: SK-OV-3 ovarian
RXF 393 renal = test system: RXF 393 renal
DU-145 prostate = test system: DU-145 prostate
HCT-116 colon = test system: HCT-116 colon
RPMI-8226 leukemia = test system: RPMI-8226 leukemia
CAKI-1 renal = test system: CAKI-1 renal
OVCAR-8 ovarian = test system: OVCAR-8 ovarian
NCI-H522 lung = test system: NCI-H522 lung
NCI-H226 lung = test system: NCI-H226 lung
EKVX NSCLC = test system: EKVX NSCLC
IGROV1 ovarian = test system: IGROV1 ovarian
MALME-3M melanoma = test system: MALME-3M melanoma
SF-295 CNS = test system: SF-295 CNS
T-47D breast = test system: T-47D breast
HT29 colon = test system: HT29 colon
MOLT-4 leukemia = test system: MOLT-4 leukemia
CCRF-CEM leukemia = test system: CCRF-CEM leukemia
OVCAR-3 ovarian = test system: OVCAR-3 ovarian
SN12C renal = test system: SN12C renal
A498 renal = test system: A498 renal
HS 578T breast = test system: HS 578T breast
MDA-MB-435 = test system: MDA-MB-435
SNB-19 CNS = test system: SNB-19 CNS
SK-MEL-5 melanoma = test system: SK-MEL-5 melanoma
UO-31 renal = test system: UO-31 renal
SK-MEL-2 melanoma = test system: SK-MEL-2 melanoma
PC-3 prostate = test system: PC-3 prostate

C=CC(=O)Nc1ccc(C(=O)/C=C/c2ccc(N(C)C)cc2)c(O)c1 was tested, and the GI50 (NCI-H23 lung) was 3.26 µM, the TGI (NCI-H23 lung) was 14.1 µM and the GI50 (SK-MEL-28 melanoma) was 2.02 µM. For the same compound, the TGI (SK-MEL-28 melanoma) was 6.44 µM, the GI50 (OVCAR-5 ovarian) was 2.55 µM and the TGI (OVCAR-5 ovarian) was 10.7 µM. For the same compound, the GI50 (SK-OV-3 ovarian) was 9.3 µM, the TGI (SK-OV-3 ovarian) was 26.7 µM and the GI50 (RXF 393 renal) was 1.43 µM. The TGI (RXF 393 renal) was 3.5 µM, the GI50 (DU-145 prostate) was 2.93 µM and the TGI (DU-145 prostate) was 12.6 µM. For the same compound, the GI50 (HCT-116 colon) was 1.49 µM, the TGI (HCT-116 colon) was 2.9 µM and the GI50 (RPMI-8226 leukemia) was 2.91 µM. The TGI (RPMI-8226 leukemia) was 12 µM, the GI50 (CAKI-1 renal) was 2.85 µM and the TGI (CAKI-1 renal) was 10.3 µM. For the same compound, the GI50 (OVCAR-8 ovarian) was 1.68 µM, the TGI (OVCAR-8 ovarian) was 4.28 µM and the GI50 (NCI-H522 lung) was 1.5 µM. For the same compound, the TGI (NCI-H522 lung) was 3.11 µM, the GI50 (NCI-H226 lung) was 2.46 µM and the TGI (NCI-H226 lung) was 11.3 µM. It also gave a GI50 (EKVX NSCLC) of 5.76 µM, a TGI (EKVX NSCLC) of 25.8 µM and a GI50 (IGROV1 ovarian) of 3.51 µM. It also gave a TGI (IGROV1 ovarian) of 15.1 µM, a GI50 (MALME-3M melanoma) of 2.19 µM and a TGI (MALME-3M melanoma) of 10.6 µM. It also gave a GI50 (SF-295 CNS) of 5.69 µM, a TGI (SF-295 CNS) of 37.1 µM and a GI50 (T-47D breast) of 2.33 µM. The TGI (T-47D breast) was 12.6 µM, the GI50 (HT29 colon) was 2.37 µM and the TGI (HT29 colon) was 7.08 µM. The GI50 (MOLT-4 leukemia) was 2.8 µM, the TGI (MOLT-4 leukemia) was over 100 µM and the GI50 (CCRF-CEM leukemia) was 2.56 µM. It also gave a TGI (CCRF-CEM leukemia) of over 100 µM, a GI50 (OVCAR-3 ovarian) of 2.79 µM and a TGI (OVCAR-3 ovarian) of 13.2 µM. For the same compound, the GI50 (SN12C renal) was 2.03 µM, the TGI (SN12C renal) was 8.27 µM and the GI50 (A498 renal) was 10.5 µM. The TGI (A498 renal) was 36.8 µM, the GI50 (HS 578T breast) was 3.26 µM and the TGI (HS 578T breast) was over 100 µM. For the same compound, the GI50 (MDA-MB-435) was 2.92 µM, the TGI (MDA-MB-435) was 14 µM and the GI50 (SNB-19 CNS) was 3.72 µM. The TGI (SNB-19 CNS) was 16.1 µM, the GI50 (SK-MEL-5 melanoma) was 3.08 µM and the TGI (SK-MEL-5 melanoma) was 12.9 µM. It also gave a GI50 (UO-31 renal) of 1.31 µM, a TGI (UO-31 renal) of 14.3 µM and a GI50 (SK-MEL-2 melanoma) of 2.94 µM. It also gave a TGI (SK-MEL-2 melanoma) of 11.5 µM and a GI50 (PC-3 prostate) of 4.57 µM.
